Measured values: patent US12569509B2, “Method and composition for preventing and treating viral infections” (priority 2017, dated 2026)
Several values for one entry are separate records, joined by “and”; a condition that tells them apart may be missing. Identical values can stand only once. Entries after “also recorded” stand apart in the source; their conditions may differ.

Experiments:
RecQ helicase = biological target: T1, RecQ helicase (Escherichia coli, UniProt P15043); test: Cell-free fluorescence molecular beacon helicase assay; format: biochemical, E. coli; parameters: Average rate of reaction / Rate (Triplicate): unit: RFU/min; details: for Fluorescence at 35 minutes, Run 2 / Fluorescence at time 0, Run 2: duplicate, listed as H; for Average rate of reaction: mean of triplicate; for Rate (Triplicate): rate of reaction=(F0-F35)/35; for Change in helicase activity compared to the DMSO control: any of the tested concentrations (0.06-200 μg/mL)
T1 construct: a full-length E. coli helicase, RecQ, was used
T1 sequence (P15043 whole entry): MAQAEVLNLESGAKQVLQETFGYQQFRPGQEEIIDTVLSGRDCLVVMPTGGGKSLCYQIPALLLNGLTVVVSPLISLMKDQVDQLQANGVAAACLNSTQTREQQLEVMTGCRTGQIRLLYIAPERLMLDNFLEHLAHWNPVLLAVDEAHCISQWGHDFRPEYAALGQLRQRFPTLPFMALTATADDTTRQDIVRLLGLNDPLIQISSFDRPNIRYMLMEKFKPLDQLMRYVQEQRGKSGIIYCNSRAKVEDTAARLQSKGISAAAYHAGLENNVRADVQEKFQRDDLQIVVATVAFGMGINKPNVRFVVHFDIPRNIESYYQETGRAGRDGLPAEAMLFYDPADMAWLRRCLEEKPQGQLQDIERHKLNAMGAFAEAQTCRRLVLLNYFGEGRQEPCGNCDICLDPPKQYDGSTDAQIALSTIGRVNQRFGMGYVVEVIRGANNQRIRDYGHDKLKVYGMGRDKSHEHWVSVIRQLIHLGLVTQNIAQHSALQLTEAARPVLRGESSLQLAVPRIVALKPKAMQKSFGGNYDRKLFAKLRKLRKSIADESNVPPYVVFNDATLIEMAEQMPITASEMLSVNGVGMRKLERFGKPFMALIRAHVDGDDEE

human PBMC [1] = test: Test compound induced cytokine secretion in human PBMC without LPS, 10 or 26 hours (Phase 1); details: 100 μM, 26 hours, no LPS
Description: Secretion of the cytokines TNF-α (A), IL-1β (B) and IL-6 (C) were measured in supernatant of PBMC cultured in the presence of test compounds using a Luminex platform with the Milliplex MAP Human High Sensitivity T Cell Panel Immunology Multiplex Assay. Results are represented as a mean from 3 separate donors in pg/mL.
Whole blood was collected from 3 human donors and peripheral blood mononuclear cells (PBMC) were isolated using the Ficoll-Paque density gradient method. PBMC were then plated and left untouched for 2 hours to account for a 2 hours pretreatement period (see below for details), and incubated for 8 or 24 hours in a humidified incubator set to maintain 37° C. with 5% CO2, with different concentrations of LPS as per Table 11 in order to determine the optimal stimulation conditions to detect cytokine release. […] RPMI medium alone or supplemented with 0.1% DMSO (to mimic treatment conditions) were used as negative controls.
At the end of the incubation period, supernatant samples were recovered and stored at −80° C. until analysis (in duplicate) using a Luminex platform with the Milliplex MAP Human High Sensitivity T Cell Panel Immunology Multiplex Assay (Cat. No. HSTCMAG-28SK) with the following selected cytokines of interest: IL-1, IL-2, IL-6, IFN-g and TNF-α. Each assay was defined by one calibration curve and 2 sets of QCs and the results were expressed as pg/mL.

human PBMC [2] = test: LPS stimulated cytokine secretion in human PBMC pretreated with compounds (Phase 2); format: cell-based; parameters: TNF-α concentration in supernatant / IL-1β concentration in supernatant / IL-6 concentration in supernatant / IL-2 concentration in supernatant / IFN-g concentration in supernatant: unit of the concentration uncertain; details: for IL-1β Mean Fold-Change (Relative to LPS alone) / IL-6 Mean Fold-Change (Relative to LPS alone) / TNF-α Mean Fold-Change (Relative to LPS alone): 1 ng/mL LPS stimulation for 8 hours, means from 3 donors; for IL-2 concentration in supernatant / TNF-α concentration in supernatant / IL-1β concentration in supernatant / IFN-g concentration in supernatant / IL-6 concentration in supernatant: 8-hour 1 ng/mL LPS stimulation; for IL-2 concentration in supernatant: LLOQ = 1.698 pg/mL; for TNF-α concentration in supernatant: LLOQ = 2.018 pg/mL; for IL-1β concentration in supernatant: LLOQ = 2.299 pg/mL; for IFN-g concentration in supernatant: LLOQ = 2.792 pg/mL; for IL-6 concentration in supernatant: LLOQ = 0.831
[3] = TA 0.06 μg/mL (plate column 4, wells A-C)
[4] = TA 0.2 μg/mL (plate column 5, wells A-C)
[5] = TA 0.6 μg/mL (plate column 6, wells A-C)
[6] = TA 2 μg/mL (plate column 7, wells A-C)
[7] = TA 6 μg/mL (plate column 8, wells A-C)
[8] = TA 60 μg/mL (plate column 10, wells A-C)
[9] = TA 200 + Buffer (plate column 12, wells A-C)

With `COc1ccc([C@@H]2CC(=O)c3c(O)cc(O[C@@H]4O[C@H](CO[C@@H]5O[C@@H](C)[C@H](O)[C@@H](O)[C@H]5O)[C@@H](O)[C@H](O)[C@H]4O)cc3O2)cc1O` [Hesperidin] the “Fluorescence at 35 minutes, Run 2” value (RecQ helicase; 0.06 μg/mL) was 2987 RFU and 3023 RFU, the “Fluorescence at time 0, Run 2” value (RecQ helicase; 0.06 μg/mL) was 5870 RFU and 7788 RFU and the “Average rate of reaction” value (RecQ helicase; 0.06 μg/mL) was 61.47. The “Average rate of reaction” value (RecQ helicase; 0.2 μg/mL) was 53.5, the “Rate (Triplicate)” value (RecQ helicase; 0.2 μg/mL) was 47.51 and 71.4 and 41.6 and the “Fluorescence at 35 minutes, Run 2” value (RecQ helicase; 0.6 μg/mL) was 2677 RFU and 2621 RFU. The “Fluorescence at time 0, Run 2” value (RecQ helicase; 0.6 μg/mL) was 9523 RFU and 7721 RFU, the “Average rate of reaction” value (RecQ helicase; 0.6 μg/mL) was 107.9714 and the “Fluorescence at 35 minutes, Run 2” value (RecQ helicase; 2 μg/mL) was 2624 RFU and 2801 RFU. For the same molecule, the “Average rate of reaction” value (RecQ helicase; 2.0 μg/mL) was 110.1429, the “Rate (Triplicate)” value (RecQ helicase; 2.0 μg/mL) was 108.1714 and 140.8 and 81.46 and the “Fluorescence at 35 minutes, Run 2” value (RecQ helicase; 6 μg/mL) was 2526 RFU and 2818 RFU. For the same molecule, the “Fluorescence at time 0, Run 2” value (RecQ helicase; 6 μg/mL) was 8127 RFU and 9570 RFU, the “Average rate of reaction” value (RecQ helicase; 6.0 μg/mL) was 169.7048 and the “Fluorescence at 35 minutes, Run 2” value (RecQ helicase; 20 μg/mL) was 3653 RFU and 3927 RFU. The “Fluorescence at time 0, Run 2” value (RecQ helicase; 20 μg/mL) was 4464 RFU and 8870 RFU, the “Average rate of reaction” value (RecQ helicase; 20.0 μg/mL) was 55.09 and the “Fluorescence at 35 minutes, Run 2” value (RecQ helicase; 60 μg/mL) was 4250 RFU and 4180 RFU. For the same molecule, the “Fluorescence at time 0, Run 2” value (RecQ helicase; 60 μg/mL) was 4134 RFU and 3133 RFU, the “Average rate of reaction” value (RecQ helicase; 60.0 μg/mL) was 58.1 and the “Fluorescence at 35 minutes, Run 2” value (RecQ helicase; 200 μg/mL) was 3913 RFU and 4063 RFU. For the same molecule, the “Average rate of reaction” value (RecQ helicase; 200.0 μg/mL) was 90.4381, the “Fluorescence at 0:00:00, Run 1” value (RecQ helicase; [3]) was 5759 RFU and 9125 RFU and 10456 RFU and the “Fluorescence at 0:35:00, Run 1” value (RecQ helicase; [3]) was 5467 RFU and 6877 RFU and 6542 RFU. For the same molecule, the “Fluorescence at 0:00:00, Run 1” value (RecQ helicase; [4]) was 7735 RFU and 8642 RFU and 7853 RFU, the “Fluorescence at 0:35:00, Run 1” value (RecQ helicase; [4]) was 6072 RFU and 6143 RFU and 6397 RFU and the “Fluorescence at 0:00:00, Run 1” value (RecQ helicase; [5]) was 7559 RFU and 14137 RFU and 7347 RFU. The “Fluorescence at 0:35:00, Run 1” value (RecQ helicase; [5]) was 5304 RFU and 6502 RFU and 5900 RFU, the “Fluorescence at 0:00:00, Run 1” value (RecQ helicase; [6]) was 10359 RFU and 11454 RFU and 8360 RFU and the “Fluorescence at 0:35:00, Run 1” value (RecQ helicase; [6]) was 6573 RFU and 6526 RFU and 5509 RFU. The “Fluorescence at 0:00:00, Run 1” value (RecQ helicase; [7]) was 10222 RFU and 10590 RFU and 17264 RFU, the “Fluorescence at 0:35:00, Run 1” value (RecQ helicase; [7]) was 6164 RFU and 5213 RFU and 8880 RFU and the “Fluorescence at 0:00:00, Run 1” value (RecQ helicase; [8]) was 10452 RFU and 7252 RFU and 7210 RFU. The “Fluorescence at 0:35:00, Run 1” value (RecQ helicase; [8]) was 7008 RFU and 6217 RFU and 5588 RFU, the “Fluorescence at 0:35:00, Run 1” value (RecQ helicase; TA 200 μg/mL (plate column 11, wells A-C)) was 7231 RFU and 6648 RFU and 7799 RFU and the “Fluorescence at 0:00:00, Run 1” value (RecQ helicase; [9]) was 10477 RFU and 15660 RFU and 9770 RFU. The “Fluorescence at 0:35:00, Run 1” value (RecQ helicase; [9]) was 9155 RFU and 9497 RFU and 7774 RFU, the “Change in helicase activity compared to the DMSO control” value (RecQ helicase) was “no observed clear change” and the “Change in helicase activity compared to the DMSO control” value (RecQ helicase; listed as hesperidin) was “no effect”. For the same molecule, the “Secretion of IL-1β and IL-6, compound alone” value (human PBMC [1]) was “in one donor, secretion of IL-1β, and IL-6 was also observed”, the “IL-1β Mean Fold-Change (Relative to LPS alone)” value (human PBMC [2]; 10 mM (so in the source)) was 1.14 and the “IL-6 Mean Fold-Change (Relative to LPS alone)” value (human PBMC [2]; 10 mM (so in the source)) was 1.10. For the same molecule, the “TNF-α Mean Fold-Change (Relative to LPS alone)” value (human PBMC [2]; 10 mM (so in the source)) was 0.98, the “IL-1β Mean Fold-Change (Relative to LPS alone)” value (human PBMC [2]; 100 mM (so in the source)) was 1.30 and the “IL-6 Mean Fold-Change (Relative to LPS alone)” value (human PBMC [2]; 100 mM (so in the source)) was 1.24. For the same molecule, the “TNF-α Mean Fold-Change (Relative to LPS alone)” value (human PBMC [2]; 100 mM (so in the source)) was 1.20, the “Effect on LPS stimulated secretion of IL-1b” value (human PBMC [2]; 200 mM (so in the source), 2 h pretreatment, 1 ng/mL LPS 8 hours) was “increase; also recorded: appeared to enhance; also recorded: potentiate” and the “IL-1β Mean Fold-Change (Relative to LPS alone)” value (human PBMC [2]; 200 mM (so in the source)) was 1.54. For the same molecule, the “IL-6 Mean Fold-Change (Relative to LPS alone)” value (human PBMC [2]; 200 mM (so in the source)) was 1.25, the “TNF-α Mean Fold-Change (Relative to LPS alone)” value (human PBMC [2]; 200 mM (so in the source)) was 1.14 and the “IL-2 concentration in supernatant” value (human PBMC [2]; Donor 1, 10 (unit uncertain)) was “<LLOQ”. For the same molecule, the “TNF-α concentration in supernatant” value (human PBMC [2]; Donor 1, 10 (unit uncertain)) was 1889.91 pg/mL, the “IL-1β concentration in supernatant” value (human PBMC [2]; Donor 1, 10 (unit uncertain)) was 3059.18 pg/mL and the “IFN-g concentration in supernatant” value (human PBMC [2]; Donor 1, 10 (unit uncertain)) was “<LLOQ”. For the same molecule, the “IL-6 concentration in supernatant” value (human PBMC [2]; Donor 1, 10 (unit uncertain)) was 1099.07 pg/mL, the “IL-2 concentration in supernatant” value (human PBMC [2]; Donor 1, 100 (unit uncertain)) was “<LLOQ” and the “TNF-α concentration in supernatant” value (human PBMC [2]; Donor 1, 100 (unit uncertain)) was 2577.7 pg/mL. The “IL-1β concentration in supernatant” value (human PBMC [2]; Donor 1, 100 (unit uncertain)) was 3955.41 pg/mL, the “IFN-g concentration in supernatant” value (human PBMC [2]; Donor 1, 100 (unit uncertain)) was “<LLOQ” and the “IL-6 concentration in supernatant” value (human PBMC [2]; Donor 1, 100 (unit uncertain)) was 1441.95 pg/mL. For the same molecule, the “IL-2 concentration in supernatant” value (human PBMC [2]; Donor 1, 200 (unit uncertain)) was “<LLOQ”, the “TNF-α concentration in supernatant” value (human PBMC [2]; Donor 1, 200 (unit uncertain)) was 2290.76 pg/mL and the “IL-1β concentration in supernatant” value (human PBMC [2]; Donor 1, 200 (unit uncertain)) was 4853.62 pg/mL. The “IFN-g concentration in supernatant” value (human PBMC [2]; Donor 1, 200 (unit uncertain)) was “<LLOQ”, the “IL-6 concentration in supernatant” value (human PBMC [2]; Donor 1, 200 (unit uncertain)) was 1485.45 pg/mL and the “IL-2 concentration in supernatant” value (human PBMC [2]; Donor 2, 10 (unit uncertain)) was “<LLOQ”. The “TNF-α concentration in supernatant” value (human PBMC [2]; Donor 2, 10 (unit uncertain)) was 1091.56 pg/mL, the “IL-1β concentration in supernatant” value (human PBMC [2]; Donor 2, 10 (unit uncertain)) was 2855.56 pg/mL and the “IFN-g concentration in supernatant” value (human PBMC [2]; Donor 2, 10 (unit uncertain)) was “<LLOQ”. The “IL-2 concentration in supernatant” value (human PBMC [2]; Donor 2, 100 (unit uncertain)) was “<LLOQ”, the “TNF-α concentration in supernatant” value (human PBMC [2]; Donor 2, 100 (unit uncertain)) was 1254.84 pg/mL and the “IL-1β concentration in supernatant” value (human PBMC [2]; Donor 2, 100 (unit uncertain)) was 2344.12 pg/mL. For the same molecule, the “IFN-g concentration in supernatant” value (human PBMC [2]; Donor 2, 100 (unit uncertain)) was “<LLOQ”, the “IL-2 concentration in supernatant” value (human PBMC [2]; Donor 2, 200 (unit uncertain)) was “<LLOQ” and the “TNF-α concentration in supernatant” value (human PBMC [2]; Donor 2, 200 (unit uncertain)) was 1621.58 pg/mL. The “IL-1β concentration in supernatant” value (human PBMC [2]; Donor 2, 200 (unit uncertain)) was 3244.42 pg/mL, the “IFN-g concentration in supernatant” value (human PBMC [2]; Donor 2, 200 (unit uncertain)) was “<LLOQ” and the “IL-2 concentration in supernatant” value (human PBMC [2]; Donor 3, 10 (unit uncertain)) was “<LLOQ”. For the same molecule, the “TNF-α concentration in supernatant” value (human PBMC [2]; Donor 3, 10 (unit uncertain)) was 3632.86 pg/mL, the “IL-1β concentration in supernatant” value (human PBMC [2]; Donor 3, 10 (unit uncertain)) was 3800.6 pg/mL and the “IFN-g concentration in supernatant” value (human PBMC [2]; Donor 3, 10 (unit uncertain)) was “<LLOQ”. The “IL-2 concentration in supernatant” value (human PBMC [2]; Donor 3, 100 (unit uncertain)) was “<LLOQ”, the “TNF-α concentration in supernatant” value (human PBMC [2]; Donor 3, 100 (unit uncertain)) was 3808.52 pg/mL and the “IL-1β concentration in supernatant” value (human PBMC [2]; Donor 3, 100 (unit uncertain)) was 4941.84 pg/mL. The “IFN-g concentration in supernatant” value (human PBMC [2]; Donor 3, 100 (unit uncertain)) was “<LLOQ”, the “IL-2 concentration in supernatant” value (human PBMC [2]; Donor 3, 200 (unit uncertain)) was “<LLOQ” and the “TNF-α concentration in supernatant” value (human PBMC [2]; Donor 3, 200 (unit uncertain)) was 2731.72 pg/mL. The “IL-1β concentration in supernatant” value (human PBMC [2]; Donor 3, 200 (unit uncertain)) was 4883.06 pg/mL and the “IFN-g concentration in supernatant” value (human PBMC [2]; Donor 3, 200 (unit uncertain)) was “<LLOQ”.
